Where a name gives a salt, the structure may show the parent alone.
Assays:
EGFR = target: T1, EGFR (Homo sapiens, UniProt P00533); assay: EGFR substrate phosphorylation assay (HTRF); format: biochemical; settings: Method (A): Enzyme Mix incubated with compound at 20° C. for 1 hr, reaction started by adding Substrate Mix
T1 construct: made in house; host or cells: baculovirus expression system
Summary of the method: (§1)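 Baculovirus-expressed kinase (0.8 nM EGFR or 10 nM ErbB2 in enzyme mix) with Peptide C 0.8 μM and ATP 20 μM (substrate-mix levels), MOPS pH 7.5, MnCl2; 90 min, 20 °C, HTRF anti-phosphotyrosine. Method A adds 1 h enzyme–compound preincubation; B none. pIC50, final compound 0.00027–47.6 μM.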

Colo205 tumor cells [1] = assay: Method A: Methylene Blue Growth Inhibition Assay, Colo205; format: cell-based; settings: Homo sapiens, COLO 205, 72 h, 3 days
Procedure: (§2) Human breast (BT474) and head and neck (HN5) tumor cells were cultured in low glucose DMEM (Life Technologies 12320-032) containing 10% fetal bovine serum (FBS). Human colon tumor cells (Colo205) were cultured in DMEM (Invitrogen, 10564) containing 10% FBS. The SV40 transformed human mammary epithelial cell line HB4a was transfected with either human H-ras cDNA (HB4a r4.2) or the human c-ErbB2 cDNA (HB4a c5.2). The HB4a clones were cultured in RPMI containing 10% FBS, insulin (5 g/mL), hydrocortisone (5 g/mL), supplemented with the selection agent hygromycin B (50 g/mL). All lines were grown in a humidified incubator at 37° C. in 95% air, 5% CO2. Cells were harvested using trypsin/EDTA, counted using a haemocytometer, and plated in 100 μL of the appropriate media, at the following densities, in a 96-well tissue culture plate (Falcon 3075): BT474 10,000 cells/well, HN5 3,000 cells/well. The next day, compounds were diluted in DMEM containing […] gentamicin, at twice the final required concentration, from 10 mM stock solutions in DMSO. 100 μl/well of these dilutions were added to the 100 μL of media currently on the cell plates. Medium containing 0.6% DMSO was added to control wells. Compounds diluted in DMEM were added to all cell lines. The final concentration of DMSO in all wells was 0.3%. Cells were returned to the incubator (37° C., […]) for 3 days. Medium was then removed by aspiration. Cell biomass was estimated by staining cells with 90 μL/well methylene blue (Sigma M9140, 0.5% in 1:1 EtOH:H2O), and incubation at room temperature for at least 30 minutes. Stain was removed, and the plates rinsed by immersion in deionized H2O and air-dried. To release stain from the cells 100 μL of solubilization solution were added (1% N-lauroyl sarcosine, sodium salt, Sigma L5125, in PBS), and plates were shaken gently for about 30 minutes. Optical density at 620 nm was measured on a microplate reader. Percent inhibition of cell growth was calculated relative to vehicle-treated control wells. Concentration of compound that inhibits 50% of control cell growth (IC50) was interpolated using nonlinear regression (Levenberg-Marquardt) and the equation,
(§3) y=Vmax*(1−(x/(K+x)))+Y2, where “K” was equal to the IC50.

BT474 tumor cells [2] = assay: Method A: Methylene Blue Growth Inhibition Assay, BT474; format: cell-based; settings: Homo sapiens, BT-474, 72 h, 3 days
Procedure: as §2, §3

HN5 tumor cells [3] = assay: Method A: Methylene Blue Growth Inhibition Assay, HN5; format: cell-based; settings: Homo sapiens, 72 h, 3 days
Procedure: as §2, §3

ErbB2 = target: T2, ErbB2 (Homo sapiens, UniProt P04626); assay: ErbB-2 substrate phosphorylation assay (HTRF); format: biochemical
T2 construct: made in house; host or cells: baculovirus expression system
T2 sequence (P04626 23-1255): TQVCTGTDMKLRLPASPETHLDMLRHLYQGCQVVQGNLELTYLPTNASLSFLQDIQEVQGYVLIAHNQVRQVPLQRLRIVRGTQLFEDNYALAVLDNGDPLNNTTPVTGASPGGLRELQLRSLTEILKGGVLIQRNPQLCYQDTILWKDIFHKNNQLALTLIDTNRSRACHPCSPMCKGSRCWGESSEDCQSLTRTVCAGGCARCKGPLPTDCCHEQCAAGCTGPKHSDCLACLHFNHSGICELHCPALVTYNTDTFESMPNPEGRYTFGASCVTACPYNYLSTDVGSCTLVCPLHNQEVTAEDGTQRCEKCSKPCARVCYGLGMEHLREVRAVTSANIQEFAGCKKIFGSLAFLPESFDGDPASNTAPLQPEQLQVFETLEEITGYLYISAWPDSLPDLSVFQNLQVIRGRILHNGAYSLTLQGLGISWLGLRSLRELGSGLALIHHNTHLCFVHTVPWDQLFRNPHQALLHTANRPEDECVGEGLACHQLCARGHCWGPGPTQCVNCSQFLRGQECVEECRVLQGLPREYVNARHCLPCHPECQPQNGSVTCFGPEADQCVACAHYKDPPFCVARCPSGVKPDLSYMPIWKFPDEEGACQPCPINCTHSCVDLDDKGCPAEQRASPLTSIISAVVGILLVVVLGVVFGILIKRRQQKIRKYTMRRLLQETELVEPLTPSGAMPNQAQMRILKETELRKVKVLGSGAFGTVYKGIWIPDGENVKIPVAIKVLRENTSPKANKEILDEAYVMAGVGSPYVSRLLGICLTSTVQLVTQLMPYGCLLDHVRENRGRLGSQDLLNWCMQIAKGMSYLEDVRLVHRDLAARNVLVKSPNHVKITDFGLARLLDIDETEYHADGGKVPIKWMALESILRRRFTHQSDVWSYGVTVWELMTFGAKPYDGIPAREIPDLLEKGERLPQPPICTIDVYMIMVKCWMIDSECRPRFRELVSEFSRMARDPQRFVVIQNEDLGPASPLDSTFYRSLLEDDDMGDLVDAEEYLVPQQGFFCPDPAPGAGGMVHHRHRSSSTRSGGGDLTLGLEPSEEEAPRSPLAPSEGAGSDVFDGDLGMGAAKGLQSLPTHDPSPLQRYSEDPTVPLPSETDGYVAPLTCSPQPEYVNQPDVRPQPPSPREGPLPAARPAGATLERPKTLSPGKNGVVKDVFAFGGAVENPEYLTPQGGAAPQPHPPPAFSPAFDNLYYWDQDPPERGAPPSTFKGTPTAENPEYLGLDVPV
Summary of the method: as §1

BT474 tumor cells [4] = assay: Method B: CellTiter-Glo Growth Inhibition Assay, BT474; format: cell-based; settings: Homo sapiens, BT-474, 72 h, 3 days
Procedure: (§4) Human breast tumor cells (BT474) were cultured in RPMI, (Invitrogen, 22400) containing 10% fetal bovine serum (FBS). Human head and neck tumor cells (HN5) were cultured in low glucose DMEM (Invitrogen, 12320) containing 10% FBS. Human colon tumor cells (Colo205) were cultured in DMEM (Invitrogen, 10564) containing 10% FBS. Human melanoma cancer cells (SK-MEL-28) were incubated in DMEM (Invitrogen). All cell lines were maintained at 37° C. in a humidified 5% CO2, 95% air incubator. Cells were harvested using trypsin/EDTA, counted using a haemocytometer, and plated in 30 μL of the appropriate media described above, at the following densities, in a half-area, black-walled, 96-well tissue culture plate (Corning 3882): BT474 3,000 cells/well, HN5 500 cells/well, Colo205 3,000 cells/well, and SK-MEL-28 500 cells/well). The next day, compounds were diluted in DMEM containing […] gentamicin, from 10 mM stock solutions in DMSO. 30 μL/well of these dilutions were added to the 30 μL/well of media currently on the cell plates. Medium containing 0.6% DMSO was added to control wells. The final concentration of DMSO in all wells was 0.3%. Cells were incubated at 37° C., 5% CO2 for 3 days. Cell biomass was estimated using CellTiter-Glo® reagent (Promega G7571). Briefly, plates were removed from the incubator and allowed to equilibrate to rt for 30 minutes. 25-60 μL of CellTiter-Glo® reagent were added to each well of the treated cells and plates were shaken on an orbital plate shaker for 2 mins. Plates were incubated without shaking for 30 more mins and read in a luminometer with an integration time of 0.5 seconds per well. Percent inhibition of cell growth was calculated relative to vehicle-treated control wells. Concentration of compound that inhibits 50% of vehicle control cell growth (IC50) was interpolated using nonlinear regression (Levenberg-Marquardt) and the equation, y=V max*(1−(x/(K+x)))+Y2, where “K” was equal to the IC50.

HN5 tumor cells [5] = assay: Method B: CellTiter-Glo Growth Inhibition Assay, HN5; format: cell-based; settings: Homo sapiens, 72 h, 3 days
Procedure: as §4

Colo205 tumor cells [6] = assay: Method B: CellTiter-Glo Growth Inhibition Assay, Colo205; format: cell-based; settings: Homo sapiens, COLO 205, 72 h, 3 days
Procedure: as §4

[7] = Method (A): Enzyme Mix incubated with compound at 20° C. for 1 hr, reaction started by adding Substrate Mix

T1 sequence (P00533 25-1210): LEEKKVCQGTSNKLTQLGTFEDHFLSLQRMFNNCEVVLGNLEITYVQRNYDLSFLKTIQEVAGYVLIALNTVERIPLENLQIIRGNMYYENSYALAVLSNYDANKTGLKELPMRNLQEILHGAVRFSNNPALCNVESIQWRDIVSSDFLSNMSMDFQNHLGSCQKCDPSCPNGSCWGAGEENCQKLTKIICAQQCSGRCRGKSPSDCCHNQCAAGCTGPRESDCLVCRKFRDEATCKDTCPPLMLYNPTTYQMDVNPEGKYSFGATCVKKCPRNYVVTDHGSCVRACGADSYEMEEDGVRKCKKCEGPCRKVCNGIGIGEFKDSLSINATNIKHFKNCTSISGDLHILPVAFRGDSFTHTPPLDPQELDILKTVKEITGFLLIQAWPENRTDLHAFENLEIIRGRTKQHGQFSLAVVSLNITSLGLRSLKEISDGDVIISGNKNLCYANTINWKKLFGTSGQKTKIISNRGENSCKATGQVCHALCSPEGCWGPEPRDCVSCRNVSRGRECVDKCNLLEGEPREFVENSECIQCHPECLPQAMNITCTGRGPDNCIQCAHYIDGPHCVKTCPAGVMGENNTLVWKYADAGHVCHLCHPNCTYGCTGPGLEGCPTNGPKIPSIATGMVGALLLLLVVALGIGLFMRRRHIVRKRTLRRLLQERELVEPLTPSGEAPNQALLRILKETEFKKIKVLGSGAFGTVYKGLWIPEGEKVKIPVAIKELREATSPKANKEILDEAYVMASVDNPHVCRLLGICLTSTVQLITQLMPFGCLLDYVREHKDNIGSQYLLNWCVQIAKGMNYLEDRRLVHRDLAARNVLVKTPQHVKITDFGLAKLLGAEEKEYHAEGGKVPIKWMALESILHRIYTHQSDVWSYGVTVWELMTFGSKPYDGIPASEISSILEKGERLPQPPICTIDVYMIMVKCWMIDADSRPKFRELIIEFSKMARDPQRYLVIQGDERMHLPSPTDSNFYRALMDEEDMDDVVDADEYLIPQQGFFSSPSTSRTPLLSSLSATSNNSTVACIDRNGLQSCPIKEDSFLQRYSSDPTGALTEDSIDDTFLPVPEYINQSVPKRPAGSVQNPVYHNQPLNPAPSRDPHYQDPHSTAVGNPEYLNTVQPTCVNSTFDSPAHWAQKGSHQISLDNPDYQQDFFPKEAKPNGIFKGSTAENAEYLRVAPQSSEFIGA

| Structure (SMILES) | IC50 (EGFR) [nM] | IC50 (Colo205 tumor cells [1]) [nM] | IC50 (BT474 tumor cells [2]) [nM] | IC50 (HN5 tumor cells [3]) [nM] | IC50 (ErbB2; [7]) [nM] | IC50 (ErbB2; Method (B): Substrate Mix added to compound first, reaction started by adding Enzyme Mix) [nM] | IC50 (BT474 tumor cells [4]) [nM] | IC50 (HN5 tumor cells [5]) [nM] | IC50 (Colo205 tumor cells [6]) [nM] |
| --- | --- | --- | --- | --- | --- | --- | --- | --- | --- |
| O=C(Nc1cccc(-c2nc(NCCN3CCOCC3)sc2-c2ccnc(Nc3ccc4c(c3)CNCC4)n2)c1)c1c(F)cccc1F [Example 1, 2,6-Difluoro-N-(3-{2-{[2-(4-morpholinyl)ethyl]amino}-5-[2-(1,2,3,4-tetrahydro-7-isoquinolinylamino)-4-pyrimidinyl]-1,3-thiazol-4-yl}phenyl)benzamide] | < 100 | 100 to 1000 | < 100 | < 100 | < 100 | – | – | – | – |
| COCCOc1ccc(Nc2nccc(-c3sc(N)nc3-c3cccc(NC(=O)c4c(F)cccc4F)c3)n2)cc1F [Example 3] | < 100 | 100 to 1000 | < 100 | < 100 | < 100 | – | – | – | – |
| Nc1nc(-c2cccc(NC(=O)c3c(F)cccc3F)c2)c(-c2ccnc(Nc3cccc(-c4cnco4)c3)n2)s1 [Example 14, N-{3-[2-Amino-5-(2-{[3-(1,3-oxazol-5-yl)phenyl]amino}-4-pyrimidinyl)-1,3-thiazol-4-yl]phenyl}-2,6-difluorobenzamide] | < 100 | < 100 | < 100 | < 100 | < 100 | – | – | – | – |
| Nc1nc(-c2cccc(NC(=O)c3c(F)cccc3F)c2)c(-c2ccnc(Nc3ccc4c(c3)CNCC4)n2)s1 [Example 21, N-(3-{2-Amino-5-[2-(1,2,3,4-tetrahydro-7-isoquinolinylamino)-4-pyrimidinyl]-1,3-thiazol-4-yl}phenyl)-2,6-difluorobenzamide] | < 100 | 100 to 1000 | < 100 | < 100 | < 100 | – | – | – | – |
| COc1ccc(Nc2nccc(-c3sc(N)nc3-c3cccc(NC(=O)c4cc(F)ccc4F)c3)n2)cc1F [Example 50, N-{3-[2-Amino-5-(2-{[3-fluoro-4-(methyloxy)phenyl]amino}-4-pyrimidinyl)-1,3-thiazol-4-yl]phenyl}-2,5-difluorobenzamide] | < 100 | > 1000 | 100 to 1000 | < 100 | < 100 | – | – | – | – |
| CNc1nc(-c2cccc(NC(=O)c3cc(F)ccc3F)c2)c(-c2ccnc(Nc3ccc(OC)c(F)c3)n2)s1 [Example 51, 2,5-Difluoro-N-{3-[5-(2-{[3-fluoro-4-(methyloxy)phenyl]amino}-4-pyrimidinyl)-2-(methylamino)-1,3-thiazol-4-yl]phenyl}benzamide] | < 100 | > 1000 | 100 to 1000 | > 1000 | < 100 | – | – | – | – |
| COCCNc1nc(-c2cccc(NC(=O)c3cc(F)ccc3F)c2)c(-c2ccnc(Nc3ccc(OC)c(F)c3)n2)s1 [Example 52, 2,5-Difluoro-N-[3-(5-(2-{[3-fluoro-4-(methyloxy)phenyl]amino}-4-pyrimidinyl)-2-{[2-(methyloxy)ethyl]amino}-1,3-thiazol-4-yl)phenyl]benzamide] | < 100 | 100 to 1000 | < 100 | 100 to 1000 | < 100 | – | – | – | – |
| COc1ccc(Nc2nccc(-c3sc(NCCN4CCOCC4)nc3-c3cccc(NC(=O)c4cc(F)ccc4F)c3)n2)cc1F [Example 53, 2,5-Difluoro-N-[3-(5-(2-{[3-fluoro-4-(methyloxy)phenyl]amino}-4-pyrimidinyl)-2-{[2-(4-morpholinyl)ethyl]amino}-1,3-thiazol-4-yl)phenyl]benzamide] | < 100 | 100 to 1000 | < 100 | < 100 | < 100 | – | – | – | – |
| Nc1nc(-c2cccc(NC(=O)c3cc(F)ccc3F)c2)c(-c2ccnc(Nc3cccc(-c4cnco4)c3)n2)s1 [Example 54] | < 100 | > 1000 | < 100 | < 100 | < 100 | – | – | – | – |
| Nc1nc(-c2cccc(NC(=O)c3cc(F)ccc3F)c2)c(-c2ccnc(Nc3ccc4c(c3)CNCC4)n2)s1 [Example 57] | < 100 | 100 to 1000 | < 100 | < 100 | < 100 | – | – | – | – |
| COCCOc1ccc(Nc2nccc(-c3sc(N)nc3-c3cccc(NC(=O)c4cc(F)ccc4F)c3)n2)cc1F [Example 58, N-[3-(2-Amino-5-{2-[(3-fluoro-4-{[2-(methyloxy)ethy]oxy}phenyl)amino]-4-pyrimidinyl}-1,3-thiazol-4-yl)phenyl]-2,5-difluorobenzamide] | < 100 | 100 to 1000 | < 100 | < 100 | < 100 | – | – | – | – |
| CN(C)CCCNc1ccc(Nc2nccc(-c3sc(N)nc3-c3cccc(NC(=O)C4CCCCC4)c3)n2)cc1F [Example 60] | < 100 | 100 to 1000 | 100 to 1000 | < 100 | < 100 | – | – | – | – |
| CN(C)CCOc1ccc(Nc2nccc(-c3sc(N)nc3-c3cccc(NC(=O)C4CCCCC4)c3)n2)cc1Cl [Example 61] | < 100 | 100 to 1000 | 100 to 1000 | < 100 | < 100 | – | – | – | – |
| O=C(Nc1cccc(-c2ncsc2-c2ccnc(Nc3cccc(F)c3)n2)c1)c1c(F)cccc1F [Example 88] | 100 to 1000 | – | 100 to 1000 | < 100 | – | 100 to 1000 | – | – | – |
| O=C1COc2ccc(Nc3nccc(-c4scnc4-c4cccc(NC(=O)c5cc(F)ccc5F)c4)n3)cc2N1 [Example 99, 2,5-Difluoro-N-[3-(5-{2-[(3-oxo-3,4-dihydro-2H-1,4-benzoxaziN-6-yl)amino]-4-pyrimidinyl}-1,3-thiazol-4-yl)phenyl]benzamide hydrochloride] | < 100 | – | – | – | < 100 | – | 100 to 1000 | 100 to 1000 | > 1000 |
| Cc1nc(-c2cccc(NC(=O)c3c(F)cccc3F)c2)c(-c2ccnc(Nc3cccc(F)c3)n2)s1 [Example 101, 2,6-Difluoro-N-[3-(5-{2-[(3-fluorophenyl)amino]-4-pyrimidinyl}-2-methyl-1,3-thiazol-4-yl)phenyl]benzamide] | < 100 | – | – | – | < 100 | – | < 100 | < 100 | > 1000 |
| Cc1nc(-c2cccc(NC(=O)Cc3cccs3)c2)c(-c2ccnc(Nc3cccc(F)c3)n2)s1 [Example 138, N-[3-(5-{2-[(3-Fluorophenyl)amino]-4-pyrimidinyl}-2-methyl-1,3-thiazol-4-yl)phenyl]-2-(2-thienyl)acetamide] | 100 to 1000 | – | – | – | > 1000 | – | > 1000 | > 1000 | > 1000 |

— patent publication US20110098296A1, “Thiazole And Oxazole Kinase Inhibitors” (priority 2007, published 2011)
